Laboratory results reported in patent US12209079B2 (GENERAL INCORPORATED ASSOCIATION PHARMA VALLEY PROJECT …, priority 2017, dated 2025).
Where a name gives a salt, the structure may show the parent alone.

Key:
TDO in A172 cells = target: T1, TDO in A172 cells (Homo sapiens, UniProt P48775); assay: TDO cell-based assay, kynurenine production in A172 cells; settings: A 172; final concentration of the compound 10 μM; rate relative to culture without compound
T1 construct: endogenous in cells; host or cells: A172 cells
T1 sequence (P48775 whole entry): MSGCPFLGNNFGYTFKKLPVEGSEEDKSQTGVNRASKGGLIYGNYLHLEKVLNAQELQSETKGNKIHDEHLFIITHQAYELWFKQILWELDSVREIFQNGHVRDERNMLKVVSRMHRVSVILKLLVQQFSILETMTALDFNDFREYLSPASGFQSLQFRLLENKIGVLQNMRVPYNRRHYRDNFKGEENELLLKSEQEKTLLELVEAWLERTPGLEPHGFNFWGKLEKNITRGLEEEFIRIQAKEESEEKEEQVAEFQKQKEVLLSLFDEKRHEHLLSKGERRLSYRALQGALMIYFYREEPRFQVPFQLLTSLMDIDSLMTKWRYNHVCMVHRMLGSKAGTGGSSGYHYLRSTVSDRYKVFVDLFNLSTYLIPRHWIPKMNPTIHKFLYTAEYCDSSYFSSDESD
Method in brief: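 A172 cells were preincubated with compound for 1 h, then given L-tryptophan (final 524 μM) for 24 h at 37 °C. Kynurenine was read at 460 nm after p-dimethylbenzaldehyde/TCA reagent, background-subtracted, and expressed as % of no-compound production.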

[1] = target: rhTDO (recombinant human TDO) (Homo sapiens, UniProt P48775); assay: Enzyme assay using rhTDO (rate of kynurenine production); type: biochemical; settings: 2 h; final concentration of the compound 10 μM; rate relative to reaction without compound; read-out: rhTDO-mediated kynurenine production
Sequence of rhTDO (recombinant human TDO) (P48775 whole entry): as above
Method in brief: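 Kynurenine output, as percent of untreated control after background subtraction, read at 490 nm with p-dimethylbenzaldehyde following TCA quench and 15 min heating at 50 °C. Reaction: rhTDO with compound, 10 min preincubation then 120 min at 37 °C, started by 20 mM tryptophan stock, in phosphate/ascorbate/methylene blue/catalase.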

[2] = target: rhIDO (recombinant human IDO) (Homo sapiens, UniProt P14902); assay: Enzyme assay using rhIDO (rate of kynurenine production); type: biochemical; settings: 2 h; final concentration of the compound 10 μM; rate relative to reaction without compound; read-out: rhIDO-mediated kynurenine production
Sequence of rhIDO (recombinant human IDO) (P14902 whole entry): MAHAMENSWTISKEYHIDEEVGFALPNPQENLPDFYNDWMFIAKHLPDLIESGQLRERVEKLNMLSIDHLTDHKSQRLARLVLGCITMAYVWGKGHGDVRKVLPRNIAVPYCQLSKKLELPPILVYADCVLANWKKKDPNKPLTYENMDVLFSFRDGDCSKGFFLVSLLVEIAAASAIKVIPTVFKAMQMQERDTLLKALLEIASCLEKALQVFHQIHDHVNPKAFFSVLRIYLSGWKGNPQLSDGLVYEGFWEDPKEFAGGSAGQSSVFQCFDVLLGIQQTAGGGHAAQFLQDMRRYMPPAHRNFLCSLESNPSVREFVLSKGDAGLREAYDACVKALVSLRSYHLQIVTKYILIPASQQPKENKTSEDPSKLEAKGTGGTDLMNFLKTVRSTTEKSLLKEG
Method in brief: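 rhIDO preincubated with compound 10 min at 37 °C in phosphate buffer with ascorbate, methylene blue and catalase; started with 2 mM tryptophan solution (stock) and run 120 min at 37 °C. Stopped with TCA and heated to convert N-formylkynurenine; kynurenine read at 490 nm after p-dimethylbenzaldehyde, background-subtracted, as % of no-compound control.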

IDO in A431 cells = target: T2, IDO in A431 cells (Homo sapiens, UniProt P14902); assay: IDO cell-based assay, kynurenine production in IFN-γ stimulated A431 cells; settings: A-431, 24 h; final concentration of the compound 10 μM; rate relative to culture without compound
T2 construct: endogenous in cells; host or cells: A431 cells, IFN-γ stimulated
T2 sequence (P14902 whole entry): as above
Method in brief: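 A431 cells were cultured 24 h, then preincubated 1 h with compound in medium containing 178 μM L-tryptophan, and stimulated with IFN-γ (diluted to 100 ng/mL before addition) for 24 h. Kynurenine was measured by p-dimethylbenzaldehyde absorbance at 460 nm, background-subtracted, and expressed as % production versus no-compound control.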

| Compound | remaining activity at 10 µM (TDO in A172 cells) | remaining activity at 10 µM [1] | remaining activity at 10 µM [2] | remaining activity at 10 µM (IDO in A431 cells) |
| --- | --- | --- | --- | --- |
| N#Cc1ccc(CNC(=O)c2ncccc2CS/C(N)=N/c2ccc(F)c(Cl)c2)cc1 [Compound 101, (2-((4-Cyanobenzyl)carbamoyl)pyridin-3-yl)methyl (E)-N′-(3-chloro-4-fluorophenyl)carbamimidothioate hydrobromide] | 70% | 84% | 78% | 61% |
| COc1ccc(CNC(=O)c2ccc(Br)cc2CSC(=N)N)cc1 [Compound 102, 5-Bromo-2-((4-methoxybenzyl)carbamoyl)benzyl carbamimidothioate hydrobromide] | 38% | 58% | 97% | 112% |
| N#Cc1ccc(CNC(=O)c2ccccc2C[Se]C(=N)N)cc1 [Compound 104, 2-((4-Cyanobenzyl)carbamoyl)benzyl carbamimidoselenoate hydrobromide] | -1% | 81% | 78% | -4% |
| COc1cccc(CNC(=O)c2ccc(Br)cc2CSC(=N)N)c1 [Compound 105, 5-Bromo-2-((3-methoxybenzyl)carbamoyl)benzyl carbamimidothioate hydrobromide] | 42% | 68% | 98% | 107% |
| COc1cccc(CNC(=O)c2ccc(Br)cc2C[Se]C(=N)N)c1 [Compound 106, 5-Bromo-2-((3-methoxybenzyl)carbamoyl)benzyl carbamimidoselenoate hydrobromide] | 48% | 98% | 90% | 64% |
| N=C(N)[Se]Cc1cc(Br)ccc1C(=O)NCC1CC1 [Compound 107, 5-Bromo-2-((cyclopropylmethyl)carbamoyl)benzyl carbamimidoselenoate hydrobromide] | 12% | 103% | 97% | 44% |
| N=C(N)[Se]Cc1ccccc1C[Se]C(=N)N [Compound 108, 1,2-Phenylenebis(methylene) dicarbamimidoselenoate dihydrobromide] | 41% | 55% | 51% | 5% |
| N=C(N)[Se]Cc1ccc(Cl)cc1C[Se]C(=N)N [Compound 109, (4-Chloro-1,2-phenylene)bis(methylene) dicarbamimidoselenoate dihydrobromide] | 63% | 57% | 61% | 19% |
| N#Cc1ccc(CNC(=O)c2cc(Br)ccc2C[Se]C(=N)N)cc1 [Compound 110, 4-Bromo-2-((4-cyanobenzyl)carbamoyl)benzyl carbamimidoselenoate hydrobromide] | 38% | 59% | 61% | 13% |
| N#Cc1ccc(CNC(=O)c2cccc(Br)c2CSC(=N)N)cc1 [Compound 111, 2-Bromo-6-((4-cyanobenzyl)carbamoyl)benzyl carbamimidothioate hydrobromide] | 87% | 122% | 17% | 53% |
| N=C(N)[Se]Cc1nc2ccccc2nc1C[Se]C(=N)N [Compound 112, Quinoxaline-2,3-diylbis(methylene) dicarbamimidoselenoate dihydrobromide] | 5% | 90% | 94% | -2% |
| N#Cc1ccc(CNC(=O)c2ccc(Br)cc2C[Se]C(=N)N)cc1 [Compound 113, 5-Bromo-2-((4-cyanobenzyl)carbamoyl)benzyl carbamimidoselenoate hydrobromide] | 44% | 58% | 92% | 73% |
| N=C(N)SCc1cc(Br)ccc1C(=O)NCc1ccc(C(F)(F)F)cc1 [Compound 114, 5-Bromo-2-((4-(trifluoromethyl)benzyl)carbamoyl)benzyl carbamimidothioate hydrobromide] | 37% | 36% | 98% | 17% |
| COCCNC(=O)c1ccc(Br)cc1CSC(=N)N [Compound 115, 5-Bromo-2-((2-methoxyethyl)carbamoyl)benzyl carbamimidothioate hydrobromide] | 71% | 63% | 91% | 121% |
| N=C(N)SCc1cc(Br)ccc1C(=O)NCc1ccc(F)c(Cl)c1 [Compound 116, 5-Bromo-2-((3-chloro-4-fluorobenzyl)carbamoyl)benzyl carbamimidothioate hydrobromide] | 55% | 21% | 85% | 92% |
| N=C(N)SCc1ccc(Br)cc1C(=O)NCc1ccc(Br)cc1 [Compound 117, 4-Bromo-2-((4-bromobenzyl)carbamoyl)benzyl carbamimidothioate hydrobromide] | 31% | 9% | 2% | 7% |
| N#Cc1ccc(CNC(=O)c2cc(Br)ccc2CS/C(N)=N/c2ccc(F)c(Cl)c2)cc1 [Compound 118, 4-Bromo-2-((4-cyanobenzyl)carbamoyl)benzyl (E)-N′-(3-chloro-4-fluorophenyl)carbamimidothioate hydrobromide] | 20% | 35% | 15% | 3% |
| N#Cc1ccc(CNC(=O)c2cc(Br)ccc2CS/C(N)=N/c2ccc(Br)cc2)cc1 [Compound 119, 4-Bromo-2-((4-cyanobenzyl)carbamoyl)benzyl (E)-N′-(4-bromophenyl)carbamimidothioate hydrobromide] | 12% | 50% | 25% | 4% |
| Fc1ccc(CSC2=NCN(CC3CC3)CN2)c(CSC2=NCN(CC3CC3)CN2)c1 [Compound 120, 6,6′-(((4-Fluoro-1,2-phenylene)bis(methylene))bis(sulfanediyl))bis(3-(cyclopropylmethyl)-1,2,3,4-tetrahydro-1,3,5-triazine)] | 7% | 8% | 41% | 14% |
| Fc1ccc(CSC2=NCN(CC3CCCCC3)CN2)c(CSC2=NCN(CC3CCCCC3)CN2)c1 [Compound 121, 6,6′-(((4-Fluoro-1,2-phenylene)bis(methylene))bis(sulfanediyl))bis(3-(cyclohexylmethyl)-1,2,3,4-tetrahydro-1,3,5-triazine)] | 11% | 7% | 29% | 14% |
| N/C(=N\c1ccc(F)c(Cl)c1)SCc1ccccc1CS/C(N)=N/c1ccc(F)c(Cl)c1 [Compound 122, 1,2-Phenylenebis(methylene) (E,E)-bis(N-(3-chloro-4-fluorophenyl)carbamimidothioate) dihydrobromide] | 7% | 8% | -3% | 2% |
| N/C(=N\c1ccc(Cl)cc1)SCc1cc(Cl)c(Cl)cc1CS/C(N)=N/c1ccc(Cl)cc1 [Compound 123, (4,5-Dichloro-1,2-phenylene)bis(methylene) (E,E)-bis(N′-(4-chlorophenyl)carbamimidothioate) dihydrobromide] | 4% | 10% | -2% | 12% |
| COc1ccc(/N=C(\N)SCc2cc(Cl)c(Cl)cc2CS/C(N)=N/c2ccc(OC)cc2)cc1 [Compound 124, (4,5-Dichloro-1,2-phenylene)bis(methylene) (E,E)-bis(N′-(4-methoxyphenyl)carbamimidothioate) dihydrobromide] | 0% | 20% | -1% | 10% |
| N/C(=N\c1cccc(Cl)c1)SCc1cc(Cl)c(Cl)cc1CS/C(N)=N/c1cccc(Cl)c1 [Compound 125, (4,5-Dichloro-1,2-phenylene)bis(methylene) (E,E)-bis(N′-(3-chlorophenyl)carbamimidothioate) dihydrobromide] | 3% | 7% | -2% | 11% |
